We go through twelve molecules from patent publication US11446287B2, “Compounds and methods for EP300 or CBP modulation and indications therefor” (Opna Immuno-Oncology SA, priority 2019, dated 2022).

pIC50: −log10 of the molar value.

T1 sequence (Q92793 1081-1197): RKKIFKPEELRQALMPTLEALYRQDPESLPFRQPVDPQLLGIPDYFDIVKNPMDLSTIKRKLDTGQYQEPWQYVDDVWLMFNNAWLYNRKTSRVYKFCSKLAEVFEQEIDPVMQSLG

This experiment concerns the target T1, Recombinant human CBP containing the bromodomain (CBP-BD (1043-1159)) (Homo sapiens, UniProt Q92793).
T1 construct: Recombinant human CBP bromodomain (CBP-BD (1043-1159)); made in house; host or cells: E. coli BL21-CodonPlus (DE3), modified pET vector
Briefly: CBP Alphascreen binding assay. Conditions: read-out: CREBBP (CBP) IC50. The essentials:
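Buffer: 50 mM HEPES pH 7.5, 50 mM NaCl, 0.01% BSA, 0.01% Triton X-100, 2 mM DTT. The signal was normalised to plate controls and fitted with a four-parameter curve to give IC50.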
Turning to `Cc1noc(C)c1-c1cnc2c(c1)c(-c1ccc(C(=O)O)cc1)cn2C(C)c1ncccn1` (stereo not drawn) [P-0013, 4-(5-(3,5-dimethylisoxazol-4-yl)-1-(1-(pyrimidin-2-yl)ethyl)-1H-pyrrolo[2,3-b]pyridin-3-yl)benzoic acid], the pIC50 is 6.00 to 10.00. As to `Cc1noc(C)c1-c1cnc2c(c1)c(-c1ccc(C(=O)O)cc1)cn2C(C)c1ccc(F)cn1` (stereo not drawn) [P-0014, 4-(5-(3,5-dimethylisoxazol-4-yl)-1-(1-(5-fluoropyridin-2-yl)ethyl)-1H-pyrrolo[2,3-b]pyridin-3-yl)benzoic acid], the negative logarithm of the IC50 (pIC50) was 6.00 to 10.00.

For `Cc1noc(C)c1-c1cnc2c(c1)c(-c1cccc(C(=O)O)c1)cn2C(c1ccccn1)C1CCCC1` (stereo not drawn) [P-0015, 3-(1-(cyclopentyl(pyridin-2-yl)methyl)-5-(3,5-dimethylisoxazol-4-yl)-1H-pyrrolo[2,3-b]pyridin-3-yl)benzoic acid], the negative logarithm of the IC50 (pIC50) is 6.00 to 10.00. In the case of `Cc1noc(C)c1-c1cnc2c(c1)c(-c1ccc(F)c(C(=O)O)c1)cn2C(c1ccccn1)C1CCCC1` (stereo not drawn) [P-0016, 5-(1-(cyclopentyl(pyridin-2-yl)methyl)-5-(3,5-dimethylisoxazol-4-yl)-1H-pyrrolo[2,3-b]pyridin-3-yl)-2-fluorobenzoic acid] it was 6.00 to 10.00. For the molecule `Cc1noc(C)c1-c1cnc2c(c1)c(-c1ccnc(C(=O)O)c1)cn2C(c1ccccn1)C1CCCC1` (stereo not drawn) [P-0017, 4-(1-(cyclopentyl(pyridin-2-yl)methyl)-5-(3,5-dimethylisoxazol-4-yl)-1H-pyrrolo[2,3-b]pyridin-3-yl)picolinic acid], the pIC50 was 6.00 to 10.00. As for `Cc1noc(C)c1-c1cnc2c(c1)c(-c1cccc(CC(=O)O)c1)cn2C(c1ccccn1)C1CCCC1` (stereo not drawn) [P-0018, 2-(3-(1-(cyclopentyl(pyridin-2-yl)methyl)-5-(3,5-dimethylisoxazol-4-yl)-1H-pyrrolo[2,3-b]pyridin-3-yl)phenyl)acetic acid], the pIC50 was 6.00 to 10.00. Regarding `Cc1noc(C)c1-c1cnc2c(c1)c(-c1ccncc1)cn2C(c1ccccn1)C1CCCC1` (stereo not drawn) [P-0019, 4-(1-(cyclopentyl(pyridin-2-yl)methyl)-3-(pyridin-4-yl)-1H-pyrrolo[2,3-b]pyridin-5-yl)-3,5-dimethylisoxazole], the negative logarithm of the IC50 (pIC50) is 5.10 to 6.00.

On to `Cc1noc(C)c1-c1cnc2c(c1)c(-c1ccc(C(=O)O)cc1OC1CC1)cn2[C@@H](C)c1ccccn1` [P-0170, (S)-3-cyclopropoxy-4-(5-(3,5-dimethylisoxazol-4-yl)-1-(1-(pyridin-2-yl)ethyl)-1H-pyrrolo[2,3-b]pyridin-3-yl)benzoic acid], for which the negative logarithm of the IC50 (pIC50) was 6.00 to 10.00. In the case of `Cc1noc(C)c1-c1cnc2c(-c3ccc(C(=O)O)cc3C#CC3CC3)cn([C@@H](C)c3ccccn3)c2c1` [P-0171, (S)-3-(cyclopropylethynyl)-4-(6-(3,5-dimethylisoxazol-4-yl)-1-(1-(pyridin-2-yl)ethyl)-1H-pyrrolo[3,2-b]pyridin-3-yl)benzoic acid], the pIC50 was 6.00 to 10.00. In the case of `COc1ccc(C(=O)O)cc1-c1cn(C(C)(c2ccccn2)c2ccccn2)c2cc(-c3c(C)noc3C)cnc12` [P-0172, 3-(1-(1,1-di(pyridin-2-yl)ethyl)-6-(3,5-dimethylisoxazol-4-yl)-1H-pyrrolo[3,2-b]pyridin-3-yl)-4-methoxybenzoic acid], the pIC50 was 5.10 to 6.00. `CCOc1cc(C(=O)O)cc(OCC)c1-n1cc(-c2cccnc2)c2ncc(-c3c(C)noc3C)cc21` [P-0173, 4-(6-(3,5-dimethylisoxazol-4-yl)-3-(pyridin-3-yl)-1H-pyrrolo[3,2-b]pyridin-1-yl)-3,5-diethoxybenzoic acid]: the pIC50 is 6.00 to 10.00.

Turning to `CCOc1cc(C(=O)O)cc(OC(C)C)c1-c1cn([C@@H](C)c2ccccn2)c2ncc(-c3c(C)noc3C)cc12` [P-0174, (S)-4-(5-(3,5-dimethylisoxazol-4-yl)-1-(1-(pyridin-2-yl)ethyl)-1H-pyrrolo[2,3-b]pyridin-3-yl)-3-ethoxy-5-isopropoxybenzoic acid], the negative-log IC50 (pIC50) was 6.00 to 10.00.
